Source: publication PMC4667271, “Discovery of a Novel Inhibitor of the Protein Tyrosine Phosphatase Shp2” (Scientific Reports, 2015)

Key:
[1] = system: ERK1/2 activation in transfected HEK293T cells; assay: ERK activity after Shp2 or PTP1B overexpression in HEK293T; format: cell-based, human; settings: 20 μM Fumos 24 h
Protocol: HEK293T, MDA-MB-231and HeLa cell lines were obtained from CRC/PUMC. Cell lines were maintained in Dulbecco’s modified Eagle’s medium supplemented with 10% fetal bovine serum. Transfections were performed in 6-well plates according to manufacturer (Invitrogen Lipofectamine LTX).Briefly, for transient transfection of HEK293T cells, subconfluent cells in 6-well plates were incubated with 2 ml of Dulbecco’s modified Eagle’s medium containing 2.5 μg of total DNA and 7.5 μl of each Lipofectamine and Plus reagent (Invitrogen) and then serum-starved in DMEM/0.1% bovine serum albumin for 18 h. After Fumos treatment for 24 h, cells were stimulated for 5 min with 20 ng/ml EGF.
Figure S2. Fumos inhibits Shp2-mediated ERK1/2 activation in human cells. […]
vectors for PTP1B and Shp2, and either untreated or treated with 20 μM Fumos for 24 h, respectively. Total cell lysates were immunoblotted with antibodies specific for […]
(§1) (1 picture or pasted object on this page, not shown here)

STEP = STEP (Homo sapiens, UniProt P54829); assay: biochemical
Protocol: (§2) Plasmids for expression of His-tag fusion proteins of human PTP were constructed in PET-28a by PCR subcloning techniques. The constructions contain only the PTP domain except Full-length Shp2. Full-length Shp2 containing Tyr279-to-Ala mutant was generated by PCR-based mutagenesis. All constructs were verified by DNA sequencing. PTP-His fusion proteins were expressed in Escherichia coli BL21 and lysed in the buffer (50 mM NaH2PO4, 300 mM NaCl, 250 mM imidazole, 1 mM dithiothreitol plus 5% glycerol), purified with Ni-NTA Magnetic Agarose Beads (Qiagen). The His-tag recombinant purification protocol was carried out according to the purification under native conditions of the QIAexpress System.
(§3) The assay was set in wells of 96-well plate with a final volume of 100 μl of reaction mixture containing 10 mM of NaAc-HAc, 1 mM of ethylene diamine tetraacetic acid, 1 mM of DL-dithiothreitol and 2% of dimethyl sulfoxide, pH 5.5. Activity of the enzyme was assayed by incubating recombinant PTP protein or mutant PTP with various concentrations of Fumos in the mixture at 37 °C for 30 min. Absorbance at 405 nm was detected immediately after addition of varied concentrations of substrate, p-nitrophenyl phosphate (pNPP) to each corresponding well.

PTPRA = PTPRA (Homo sapiens, UniProt P18433); assay: biochemical
Protocol: as §2, §3

Meg2 = Meg2 (Homo sapiens, UniProt P43378); assay: in vitro PTP assay (pNPP), Meg2; format: biochemical
Protocol: as §2, §3

Shp2-WT = biological target: T1, Shp2-WT (Homo sapiens, UniProt Q06124); assay: Surface plasmon resonance analysis, Shp2-WT; format: binding; settings: SPR, Fumos immobilized, Shp2-WT injected
T1 sequence (Q06124 1-593): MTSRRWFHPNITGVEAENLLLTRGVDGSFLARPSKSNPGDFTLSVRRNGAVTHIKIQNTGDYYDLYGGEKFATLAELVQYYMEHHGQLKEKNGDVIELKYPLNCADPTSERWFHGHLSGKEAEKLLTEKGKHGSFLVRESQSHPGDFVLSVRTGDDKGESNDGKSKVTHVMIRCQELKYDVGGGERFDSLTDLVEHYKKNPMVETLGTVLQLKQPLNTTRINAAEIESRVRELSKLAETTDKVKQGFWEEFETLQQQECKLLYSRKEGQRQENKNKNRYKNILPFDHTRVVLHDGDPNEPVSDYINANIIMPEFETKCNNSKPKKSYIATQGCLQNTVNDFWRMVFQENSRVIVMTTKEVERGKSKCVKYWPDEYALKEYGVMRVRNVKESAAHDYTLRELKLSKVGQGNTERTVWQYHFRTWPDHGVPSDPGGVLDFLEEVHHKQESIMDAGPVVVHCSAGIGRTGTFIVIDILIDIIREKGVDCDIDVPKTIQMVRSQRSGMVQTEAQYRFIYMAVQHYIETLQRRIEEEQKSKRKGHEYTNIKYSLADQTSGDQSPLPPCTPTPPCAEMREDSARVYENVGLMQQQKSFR
Protocol: One small molecule (10 mM) was spotted on the 3D sensor chip. Positive and negative controls on the chip were monitored for binding kinetics to verify immobilization. All experiments were performed using Plexera’s Plex Array SPRi instrumentation, visualized using Instrument Control software (ICS) and analyzed using Plexera Data Explorer software.
Proteins were injected in the following order: Shp2 full-length protein (12 nM, 36 nM, 108 nM, 324 nM), Shp2 Y279A protein (35 nM, 70 nM,140 nM, 280 nM, 560 nM). Each protein was injected at a flow rate of 1 μl/sec. The association duration was 200 sec and dissociation duration was 300 sec. Regeneration between injections was performed with 600 μl of 10 mM glycine-HCl, pH = 2.0. The data were analyzed by Plexera Data Explorer software.

[2] = system: Gab1-Shp2 association in MDA-MB-231 cells; assay: Gab1-Shp2 co-immunoprecipitation, MDA-MB-231; format: cell-based, human; settings: Fumos alone
Protocol: Cells were washed with cold PBS twice and lysed in cell lysis buffer for 10 min on ice. Then the lytic cells were centrifugated with 13,000 g for 10 min at 4 °C. The supernatant was transferred to a fresh conical centrifuge tube on ice and added 1 μg of the appropriate control IgG, together with 20 μl of resuspended volume of Protein A/G PLUS-Agarose (Santa Cruz Biotechnology, CA), then incubated at 4 °C for 30 min. The pellet beads were centrifugated at 1,000 g for 5 min at 4 °C. The supernatant with approximately 100–500 μg total cellular protein was incubated with 2 μg primary antibody against Shp2 or Gab1 for 7 h at 4 °C. Then lysates containing protein-antibody complexes were incubated with 20 μl of Protein A/G PLUS-Agarose at 4 °C on a rotating device overnight. Immunoprecipitates were collected by centrifugation at 2,500 rpm and washed for 4 times with 1 ml lysis buffer, then suspended in the loading buffer, boiled, and analyzed by SDS-PAGE.
Figure S1. Fumos inhibits Gab1-Shp2 association in MDA-MB-231 cells.
MDA-MB-231 cells were serum-starved for 18 h, preincubated with or without Fumos (20 μM 24 h), and then treated with EGF (20 ng/ml, 5 min). Shp2 was immunoprecipitated from cell lysate supernatants. Immunoprecipitates were analyzed by immunoblotting with antibodies to Gab1, pY and Shp2.
as §1

[3] = biological target: T2, full-length Shp2 (Shp2 FL) (Homo sapiens, UniProt Q06124); assay: in vitro PTP assay (pNPP), full-length Shp2; format: biochemical
T2 sequence (Q06124 1-593): T1 sequence (Q06124 1-593)
Protocol: as §2, §3

Sequence of STEP (P54829 300-555 limits assumed): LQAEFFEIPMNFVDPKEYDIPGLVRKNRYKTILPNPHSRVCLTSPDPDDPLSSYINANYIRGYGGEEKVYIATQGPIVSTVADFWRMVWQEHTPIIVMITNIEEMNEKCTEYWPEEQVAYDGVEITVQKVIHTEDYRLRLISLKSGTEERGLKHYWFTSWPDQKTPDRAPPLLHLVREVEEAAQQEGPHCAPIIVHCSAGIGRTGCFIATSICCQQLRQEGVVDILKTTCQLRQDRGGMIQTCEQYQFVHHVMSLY
Sequence of PTPRA (P18433 241-501 limits assumed): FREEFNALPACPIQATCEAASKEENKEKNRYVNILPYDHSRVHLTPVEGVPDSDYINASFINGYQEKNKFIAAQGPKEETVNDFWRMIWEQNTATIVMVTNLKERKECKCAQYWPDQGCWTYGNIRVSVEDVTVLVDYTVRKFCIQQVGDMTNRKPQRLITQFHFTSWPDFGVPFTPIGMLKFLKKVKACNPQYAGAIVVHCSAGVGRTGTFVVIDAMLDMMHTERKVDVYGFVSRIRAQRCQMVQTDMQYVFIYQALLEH
Sequence of Meg2 (P43378 303-574 limits assumed): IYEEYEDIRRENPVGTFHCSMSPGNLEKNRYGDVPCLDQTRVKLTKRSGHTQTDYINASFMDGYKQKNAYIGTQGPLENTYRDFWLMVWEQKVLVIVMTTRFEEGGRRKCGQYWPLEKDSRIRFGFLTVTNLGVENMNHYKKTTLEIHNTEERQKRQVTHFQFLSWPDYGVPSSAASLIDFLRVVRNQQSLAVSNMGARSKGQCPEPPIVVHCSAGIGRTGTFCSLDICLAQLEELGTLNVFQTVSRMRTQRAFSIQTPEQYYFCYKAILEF

CC[C@@H](C)C[C@@H](C)/C=C(C)/C=C/C=C/C=C(\C)C(=O)c1c(O)c(-c2ccc(O)cc2)cn(O)c1=O [Fumos, Fumosorinone]
ERK activity after Fumos treatment in cells transfected with PTP1B [1]: little recovery
ERK activity after Fumos treatment in cells transfected with Shp2 [1]: partially recovered
IC50 (STEP; STEP PTP domain): > 100 µM
IC50 selective (STEP; STEP relative to Shp2 PTP domain): >16
IC50 (PTPRA; PTPRA PTP domain): > 100 µM
IC50 selective (PTPRA; PTPRA relative to Shp2 PTP domain): >16
IC50 (Meg2; Meg2 PTP domain): > 100 µM
IC50 selective (Meg2; Meg2 relative to Shp2 PTP domain): >16
Ka (association rate) (Shp2-WT): 7.06 × 10^5 M^−1 S^−1
Kd (Shp2-WT): 0.04 µM
Kd (dissociation rate) (Shp2-WT): 2.85 × 10^−2 S^−1
Gab1-Shp2 association without EGF [2]: induces Gab1-Shp2 association
IC50 selective ([3]; Shp2 FL relative to Shp2 PTP domain): 4
IC50 ([3]; full-length Shp2 (Shp2 FL)): 26.5 ± 0.37 µM
